Counter-ions that a name gives are not always drawn. Like-named read-outs stand apart in the source and are kept apart here.
How the values were obtained:
[1] = target: T1, ABL1-N-HiBiT kinase domain (Homo sapiens, UniProt P00519); assay: SDR assay, ABL1-N-HiBiT; details: for EC50: read-out: SDR Ave SDR50; for EC50 / SDR Ave pSDR50: average
T1 sequence (P00519 233-500): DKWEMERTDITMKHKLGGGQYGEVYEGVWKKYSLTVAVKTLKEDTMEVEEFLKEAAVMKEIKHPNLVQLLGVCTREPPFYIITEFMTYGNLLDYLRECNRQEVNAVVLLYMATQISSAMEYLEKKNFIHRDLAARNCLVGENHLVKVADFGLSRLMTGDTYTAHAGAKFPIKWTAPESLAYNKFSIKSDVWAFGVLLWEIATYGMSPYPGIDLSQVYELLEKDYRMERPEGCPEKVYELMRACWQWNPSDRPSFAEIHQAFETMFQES

PKA-N-HiBiT = PKA-N-HiBiT (Homo sapiens, UniProt P17612); assay: SDR assay, PKA-N-HiBiT
PKA = details: cited from earlier work
[2] = ABL1-N-HiBiT qHTS, average maximal SDR response
[3] = PKA-N-HiBiT qHTS, SDR assay, average maximal response
[4] = annotation yes/no for kinase library compound, source not given
[5] = ABL1-N-HiBiT qHTS, SDR assay, average maximal response
[6] = ABL1-N-HiBiT qHTS, unit inferred

Row | SDR Ave Max Response [1, 2] | SDR Ave Max Response (PKA-N-HiBiT; [3]) | SMILES | Annotated PKA activity (PKA; [4]) | other results
1 | 7.50 | -3.80 | Cc1cccc(/C=N/Nc2cc(N3CCOCC3)nc(OCCc3ccccn3)n2)c1 [Apilimod] | no | –
2 | – | 3.65 | Cc1sc2c(c1C)C(c1ccc(Cl)cc1)=N[C@@H](CC(=O)Nc1ccc(OCCOCCOCCOCCNc3cccc4c3C(=O)N(C3CCC(=O)NC3=O)C4=O)cc1)c1nnc(C)n1-2 (stereo partly shown) [ARV-825] | no | SDR Ave Max Response [1, 5]: 5.73
3 | – | – | FC(F)(F)c1ccc(/C=C/c2nc(COc3ccc(CCCCn4ccnn4)cc3)co2)cc1 [Mubritinib] | – | SDR Ave Max Response [1]: 1.25; SDR Ave Max Response (PKA-N-HiBiT): 6.74; Annotated PKA activity (PKA): no
4 | 8.96 | -0.36 | S=C(NCc1ccc2c(c1)OCO2)N1CCN(c2ncnc3c2oc2ccccc23)CC1 [Amuvatinib] | no | –
5 | -3.85 | 1.44 | Cn1sc(=O)n(Cc2ccccc2)c1=O [TDZD 8] | no | –
6 | 10.90 | 1.84 | CCNC(=O)Nc1ccc(-c2nc3c(c(N4CCOC[C@@H]4C)n2)CCN(c2ncccn2)C3)cc1 [mTOR-IN-1] | no | –
7 | 18.89 | 3.67 | Cc1ccc(NC(=O)N2CCN(c3nc(N)nc4sc(-c5cccnc5)nc34)CC2)cc1 [PI4KIII beta inhibitor 3] | no | SDR Ave pSDR50 ([1]; ABL1-N-HiBiT qHTS): 4.83; EC50 [1, 6]: 14.9 µM
8 | 6.18 | 1.20 | COc1cc(NC(=O)c2cccc(-n3cc(NC(=O)Nc4cccc(C)c4)cn3)c2)cc(OC)c1OC [SR 3576] | no | –
9 | 60.77 | 11.43 | CNC(=O)c1ccccc1Nc1nc(Nc2ccc(N3CCOCC3)cc2OC)ncc1Cl [NVP-TAE226] | no | –
10 | -2.59 | -13.01 | O=C1CCC(N2C(=O)c3ccccc3C2=O)C(=O)N1 (stereo not shown) [Thalidomide] | no | –
11 | -18.17 | 2.85 | Cc1ccccc1-n1c([C@H](C)Nc2nc(N)nc3[nH]cnc23)nc2cccc(C)c2c1=O [CAL-130 Hydrochloride] | no | SDR Ave pSDR50 ([1]; ABL1-N-HiBiT qHTS): 5.40; EC50 [1, 6]: 4.04 µM

Row | SMILES | SDR Ave Max Response [1, 2] | SDR Ave Max Response (PKA-N-HiBiT; [3]) | Annotated PKA activity (PKA; [4]) | other results
12 | CCn1nc(C2CCN(C(=O)CCO)CC2)nc1-c1cnc(N)c(-c2nnc(C(C)(C)C)o2)n1 [AZD-8835] | – | 6.01 | no | ABL1 SDR pSDR50 ([1]; ABL1, SDR, heatmap data, 128 kinase inhibitors): 4.80; SDR Ave Max Response [1, 5]: 63.43; EC50 ([1]; ABL1-N-HiBiT qHTS, SDR assay): 17.6 µM
13 | COc1ccc2c(Oc3ccc(NC(=O)c4c(C)n(CC(C)(C)O)n(-c5ccccc5)c4=O)nc3)ccnc2c1 [AMG-458] | 38.29 | – | yes | EC50 (PKA-N-HiBiT): 10.7 µM; SDR Ave Max Response (PKA-N-HiBiT): -17.61; EC50 (PKA-N-HiBiT; read-out: PKA SDR Ave SDR50): 10.7 µM
14 | Cc1ncc(NC(=O)c2ccc(CN3CCN(C)CC3)c(C(F)(F)F)c2)cc1Nc1nccc(-c2cccnc2)n1 [Flumatinib] | 74.04 | 7.84 | no | –
15 | COc1ccc(CNC(=O)Nc2ncc([N+](=O)[O-])s2)cc1 [AR-A014418] | -7.75 | -0.25 | no | –
16 | Cc1[nH]c2ccccc2c1C1=C(NCCc2ccc(F)cc2)C(=O)N(C)C1=O [IM-12] | -12.41 | -30.07 | no | EC50 (PKA-N-HiBiT): 32.4 µM; EC50 (PKA-N-HiBiT; read-out: PKA SDR Ave SDR50, PKA-N-HiBiT qHTS, SDR assay, average): 41.4 µM

Reference: article PMC12064818, “A general assay platform to study protein pharmacology using ligand-dependent structural dynamics” (Nature Communications, 2025)
